EP2975033A1, “Improved cysteine-protease inhibitors” (Universitat Jaume I, priority 2014, dated 2016)
pIC50: −log10 of the molar value. ≈ marks a conversion by molar mass, not a printed value. Read-outs that look alike come from different tables or passages of the source.

Key:
Cathepsin B (human) = target: T1, Cathepsin B (human) (Homo sapiens, UniProt P07858); assay: Protease assay, fluorogenic substrate Z-Phe-Arg-AMC: Cathepsin B; assay type: biochemical; details: CB=CathepsinB; for pIC50: 25 °C, pH 6.5, 100 µM substrate, read-out: CBIC50micM
T1 construct: Cathepsin B (human liver) Calbiochem; purchased Calbiochem; host or cells: human liver (tissue-derived)
Description: (§1) 2.1.1. Protease Assays as shown in tables 1 and 2: Cathepsin L (human), Cathepsin B (human), Rhodesain (Trypanosoma brucei rhodesiense), Falcipain 2 (Plasmodium falciparum)
(§2) Enzyme assays used to identify inhibitors of the target cysteine proteases. The effect is detected measuring fluorescence increase due to hydrolysis of fluorogenic substrates by the target enzymes in absence and presence of potential inhibitors.
(§3) • a. Proteins (enzymes): • Cathepsin L (human liver) Calbiochem • Cathepsin B (human liver) Calbiochem • Rhodesain: recombinantly expressed according to ref.: Caffrey, C. R.; Hansell, E.; Lucas, K. D.; Brinen, L. S.; Hernandez, A. A.; Cheng, J.; Gwaltney, S. L., II; Roush, W. R.; Stierhof, Y. D.; Bogyo, M.; Steverding, D.; McKerrow, J. H. Active site mapping, biochemical properties and subcellular localization of rhodesain, the major cysteine protease of Trypanosoma • Falcipain 2: recombinantly expressed according to ref.: Pandey, K. C.; Wang, S. X.; Sijwali, P. S.; Lau, A. L.; McKerrow, J. H.; Rosenthal, P. J. The Plasmodium falciparum cysteine protease falcipain-2 captures its substrate, hemoglobin, via a unique motif. Proc. Natl. Acad. Sci. U.S.A. 2005, 102, 9138-9143. • b. Buffers: • Cathepsin B: 50 mM Tris-Puffer pH 6.5 mit 2 mM DTT, 5 mM EDTA, 200 mM NaCl, 0.005% Brij35 • Cathepsin L: 50 mM Tris-Puffer pH 6.5 mit 2 mM DTT, 5 mM EDTA, 200 mM NaCl, 0.005% Brij35 • Rhodesain: 50 mM Acetat-Puffer pH 5.5 mit 5 mM DTT, 5 mM EDTA, 200 mM NaCl, 0.005% Brij35 • Falcipain 2: 50 mM Acetat-Puffer pH 5.5 mit 5 mM DTT, 5 mM EDTA, 200 mM NaCl, 0.005% Brij35 • c. Substrates: • Cathepsin L: 6,25 µM Z-Phe-Arg-7-amino-4-methylcumarin, HCl von Bachem, Ex 380 nm, Em 460 nm • Cathepsin B: 100 µM Z-Phe-Arg-7-amino-4-methylcumarin, HCl von Bachem, Ex 380 nm, Em 460 nm • Rhodesain: 10µM Z-Phe-Arg-7-amino-4-methylcumarin, HCl von Bachem, Ex 380 nm, Em 460 nm • Falcipain 2: 25µM Z-Phe-Arg-7-amino-4-methylcumarin, HCl von Bachem, Ex 380 nm, Em 460 nm • Reference substance(s)/positive control(s): E64 • d. Solvent for inhibitors and substrates: DMSO 99,5% (GC) DC4540, Sigma • e. Measurement device: Tecan Fluorescence spectrophotometer infinite F200 Pro • f. Well plates: 96 well plates, Lia-Plate White, Greiner bio-one, flat bottom, high binding • g. Methodology: Substrates and inhibitor stock solutions are prepared in DMSO and diluted with the respective assay buffer (final DMSO concentration: […]). Enzyme stock solutions are diluted with assay buffer to yield a fluorescence increase of dF/min ≈ _20. Total volume: 200 µL (180 µL of assay buffer, 5 µL of enzyme solution, 10 µL of DMSO or inhibitor solution, 5 µL of substrate solution). Assays are started by the addition of substrate solution. Fluorescence increase is detected over a period of 10 - 30 min, depending on time dependent (30 min) or non-time dependent (10 min) inhibition. • h. Temp: 25 °C • i. DATA-[…] • Software: Grafit 5.013 • Ki values are calculated from IC50 values (obtained by the 4-parameter IC50 equation) using the Chen-Prusoff equation: Ki=IC50/(1 + [S]/Km)
(§4) In vitro inhibition of cysteine-proteases cruzain (CR) (Trypanosoma cruzi (T. cruzi)), rhodesain (RD) (T. brucei), cathepsin B (CB), falcipain (FP2) (Plasmodium falciparum) and cathepsin L (CL) was assessed by quantification of the resulting fluorescence emission of the proteolytic breakdown of synthetic compound Z-Phe-Arg-AMC (Bachem). The results of this determination are shown in tables 1 and 2 illustrated above.

Cathepsin L (human) = target: T2, Cathepsin L (human) (Homo sapiens, UniProt P07711); assay: Protease assay, fluorogenic substrate Z-Phe-Arg-AMC: Cathepsin L; assay type: biochemical; details: CL=CathepsinL; for pIC50: read-out: CL(IC50), 25 °C, pH 6.5, 6,25 µM substrate
T2 construct: Cathepsin L (human liver) Calbiochem; purchased Calbiochem; host or cells: human liver (tissue-derived)
Description: as §1, §2, §3, §4

Falcipain 2 = target: T3, Falcipain 2 (Plasmodium falciparum, UniProt Q8I6U4); assay: Protease assay, fluorogenic substrate Z-Phe-Arg-AMC: Falcipain 2; assay type: biochemical; details: FP2=Falcipain2
T3 construct: made in house
Description: as §1, §2, §3, §4

Rhodesain = target: T4, Rhodesain (Trypanosoma brucei rhodesiense, UniProt Q95PM0); assay: Protease assay, fluorogenic substrate Z-Phe-Arg-AMC: Rhodesain; assay type: biochemical; details: for pIC50: RD=Rhodesain, 25 °C, pH 5.5, 10µM substrate
T4 construct: made in house
Description: as §1, §2, §3, §4

cruzain (CR) = cruzain (CR) (Trypanosoma cruzi, UniProt P25779); assay: In vitro inhibition of cruzain, fluorescence of Z-Phe-Arg-AMC breakdown; assay type: biochemical
Protocol: as §2, §4

[1] = test system: Trypanosoma brucei rhodesiense STIB900; assay: Activity against Trypanosoma brucei rhodesiense STIB900 (Alamar Blue); assay type: cell-based; details: Trypanosoma brucei
Protocol: (§5) For all the susceptibility assays with parasites and cells, each drug was tested in duplicate and each assay was repeated at least once. • a. Activity against Trypanosoma brucei rhodesiense STIB900. This stock was isolated in 1982 from a human patient in Tanzania and after several mouse passages cloned and adapted to axenic culture conditions (Baltz et al 1985) Minimum Essential Medium (50 µl) supplemented with 25 mM HEPES, 1g/l additional glucose, 1% MEM non-essential amino acids (100x), 0.2 mM 2-mercaptoethanol, 1 mM Na-pyruvate and 15% heat inactivated horse serum was added to each well of a 96-well microtiter plate. Serial drug dilutions of eleven 3-fold dilution steps covering a range from 100 to 0.002 µg/ml were prepared. Then 4x10^3 bloodstream forms of T. b. rhodesiense STIB 900 in 50 µl was added to each well and the plate incubated at 37 °C under a 5 % CO2 atmosphere for 70 h. 10 µl Alamar Blue (resazurin, 12.5 mg in 100 ml double-distilled water) was then added to each well and incubation continued for a further 2-4 h (Raz et al 1997). Then the plates were read with a Spectramax Gemini XS microplate fluorometer (Molecular Devices Cooperation, Sunnyvale, CA, USA) using an excitation wave length of 536 nm and an emission wave length of 588 nm. The IC50 values were calculated by linear regression (Huber 1993) from the sigmoidal dose inhibition curves using SoftmaxPro software (Molecular Devices Cooperation, Sunnyvale, CA, USA). Melarsoprol (Arsobal Sanofi-Aventis, received from WHO) is used as control. • b. Activity against T. cruzi. Rat skeletal myoblasts (L-6 cells) were seeded in 96-well microtitre plates at 2000 cells/well in 100 µL RPMI 1640 medium with 10% FBS and 2 mM I-glutamine. After 24 h the medium was removed and replaced by 100 µl per well containing 5000 trypomastigote forms of T. cruzi Tulahuen strain C2C4 containing the β-galactosidase (Lac Z) gene (Buckner et al. 1996). After 48 h the medium was removed from the wells and replaced by 100 µl fresh medium with or without a serial drug dilution of eleven 3-fold dilution steps covering a range from 100 to 0.002 µg/ml. After 96 h of incubation the plates were inspected under an inverted microscope to assure growth of the controls and sterility. Then the substrate CPRG/Nonidet (50 µl) was added to all wells. A color reaction developed within 2-6 h and could be read photometrically at 540 nm. Data were analyzed with the graphic programme Softmax Pro (Molecular Devices), which calculated IC50 values by linear regression (Huber 1993) from the sigmoidal dose inhibition curves. […] Activity against L. donovani axenic amastigotes. Amastigotes of L. donovani strain MHOM/ET/67/L82 were grown in axenic culture at 37 °C in SM medium (Cunnigham et al. 1977) at pH 5.4 supplemented with 10% heat-inactivated fetal bovine serum under an atmosphere of 5% CO2 in air. One hundred microlitres of culture medium with 10^5 amastigotes from axenic culture with or without a serial drug dilution were seeded in 96-well microtitre plates. Serial drug dilutions of eleven 3-fold dilution steps covering a range from 90 to 0.002 µg/ml were prepared. After 70 h of incubation the plates were inspected under an inverted microscope to assure growth of the controls and sterile conditions. 10 µl of Alamar Blue (12.5 mg resazurin dissolved in 100 ml distilled water) (Mikus and Steverdig. 2000) were then added to each well and the plates incubated for another 2 h. Then the plates were read with a Spectramax Gemini XS microplate fluorometer (Molecular Devices Cooperation, Sunnyvale, CA, USA) using an excitation wave length of 536 nm and an emission wave length of 588 nm. Data were analyzed using the software Softmax Pro (Molecular Devices Cooperation, Sunnyvale, CA, USA). Decrease of fluorescence (= inhibition) was expressed as percentage of the fluorescence of control cultures and plotted against the drug concentrations. From the sigmoidal inhibition curves the IC50 values were calculated. • d.

[2] = test system: T. cruzi Tulahuen strain C2C4; assay: Activity against T. cruzi in L-6 cells (beta-galactosidase, CPRG); assay type: cell-based; details: Trypanosoma cruzi, TULAHUEN, L6
Protocol: as §5

[3] = test system: L. donovani strain MHOM/ET/67/L82; assay: Activity against L. donovani axenic amastigotes (Alamar Blue); assay type: cell-based; details: Leishmania donovani
Protocol: as §5

[4] = test system: P. falciparum NF54 strain; assay: Activity against P. falciparum, 3H-hypoxanthine incorporation assay; assay type: cell-based; details: Plasmodium falciparum, NF54

T4 sequence (Q95PM0 entry or part of it): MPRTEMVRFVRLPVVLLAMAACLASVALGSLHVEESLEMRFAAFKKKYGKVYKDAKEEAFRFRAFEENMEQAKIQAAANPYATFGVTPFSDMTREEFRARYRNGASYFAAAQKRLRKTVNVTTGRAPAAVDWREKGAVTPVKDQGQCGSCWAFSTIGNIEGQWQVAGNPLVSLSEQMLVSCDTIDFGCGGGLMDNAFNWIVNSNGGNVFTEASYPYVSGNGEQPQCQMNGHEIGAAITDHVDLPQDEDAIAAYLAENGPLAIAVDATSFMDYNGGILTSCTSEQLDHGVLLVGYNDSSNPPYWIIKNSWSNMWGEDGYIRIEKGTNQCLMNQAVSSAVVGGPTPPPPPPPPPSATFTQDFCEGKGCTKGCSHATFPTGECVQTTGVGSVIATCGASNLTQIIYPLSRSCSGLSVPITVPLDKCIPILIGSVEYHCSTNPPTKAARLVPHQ
T3 sequence (Q8I6U4 244-484): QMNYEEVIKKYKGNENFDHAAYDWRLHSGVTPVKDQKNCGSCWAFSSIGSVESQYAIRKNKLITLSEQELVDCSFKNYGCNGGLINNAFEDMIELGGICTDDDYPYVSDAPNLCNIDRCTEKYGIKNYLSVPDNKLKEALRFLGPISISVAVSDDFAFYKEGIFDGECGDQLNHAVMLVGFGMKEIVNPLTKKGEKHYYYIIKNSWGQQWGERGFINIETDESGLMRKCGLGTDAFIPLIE
T2 sequence (P07711 114-333): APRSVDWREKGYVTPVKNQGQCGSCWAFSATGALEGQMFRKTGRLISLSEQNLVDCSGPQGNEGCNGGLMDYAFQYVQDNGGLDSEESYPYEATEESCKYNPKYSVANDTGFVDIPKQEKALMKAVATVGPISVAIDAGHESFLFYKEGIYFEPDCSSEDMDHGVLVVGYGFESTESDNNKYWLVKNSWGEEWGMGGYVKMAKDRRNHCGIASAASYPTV
cruzain (CR), sequence (P25779 123-467): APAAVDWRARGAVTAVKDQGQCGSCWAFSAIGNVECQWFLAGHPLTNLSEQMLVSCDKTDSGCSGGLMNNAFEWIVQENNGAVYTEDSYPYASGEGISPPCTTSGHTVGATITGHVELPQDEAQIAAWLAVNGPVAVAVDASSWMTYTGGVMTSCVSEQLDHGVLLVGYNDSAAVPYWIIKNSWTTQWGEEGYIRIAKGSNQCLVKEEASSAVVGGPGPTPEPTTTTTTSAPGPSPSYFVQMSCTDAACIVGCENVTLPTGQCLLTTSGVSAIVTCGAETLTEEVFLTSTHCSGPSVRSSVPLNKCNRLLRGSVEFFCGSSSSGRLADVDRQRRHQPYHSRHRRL

SMILES	CB(K2nd(M-1s-1)) (Cathepsin B (human))	pIC50 (Cathepsin B (human))	CL(K2nd(M-1s-1)) (Cathepsin L (human))	pIC50 (Cathepsin L (human))	FP2(K2nd(M-1s-1)) (Falcipain 2)	RD(K2nd(M-1s-1)) (Rhodesain)	pIC50 (Rhodesain)	CR(K2nd(M-1s-1)) (cruzain (CR))	pIC50 (cruzain (CR))	further results
CCOC(=O)/C=C/C(=O)[C@H](C)NC(=O)[C@H](Cc1ccccc1)NC(=O)OCc1ccccc1	4738 M⁻¹ s⁻¹	6.85	197273 M⁻¹ s⁻¹	7.05	28285 M⁻¹ s⁻¹	6481 M⁻¹ s⁻¹	6.23	139583 M⁻¹ s⁻¹	6.54	
CCOC(=O)/C=C/C(=O)[C@H](C)NC(=O)[C@H](CC(C)C)NC(=O)OCc1ccccc1	85470 M⁻¹ s⁻¹	7.15	9821 M⁻¹ s⁻¹	6.26	12013 M⁻¹ s⁻¹	14207 M⁻¹ s⁻¹	6.10	14412 M⁻¹ s⁻¹	6.20	pIC50 (Falcipain 2; 25 °C, pH 5.5, 25µM substrate): 5.93
CCOC(=O)/C=C/C(=O)[C@H](CCc1ccccc1)NC(=O)[C@H](Cc1ccccc1)NC(=O)OCc1ccccc1 [FGA-44]										IC50 ([1]; 70 h, replicate 1, bloodstream forms, 70 h, read-out: T.b.rhod. IC50 repl1): 0.446 µg/mL (≈ 0.822 µM); IC50 ([1]; 70 h, replicate 2, bloodstream forms, 70 h, read-out: T.b.rhod. IC50 repl2): 0.564 µg/mL (≈ 1.04 µM); IC50 ([1]; mean of replicates, read-out: T.b.rhod. IC50 mean): 0.505 µg/mL (≈ 0.931 µM); IC50 ([2]; mean of replicates, read-out: T.cruzi. IC50 mean): 10.9 µg/mL (≈ 20.1 µM); IC50 ([2]; replicate 1, L-6 cells, 96 h, read-out: T.cruzi. IC50 repl1): 7.74 µg/mL (≈ 14.3 µM); IC50 ([2]; replicate 2, L-6 cells, 96 h, read-out: T.cruzi. IC50 repl2): 14.1 µg/mL (≈ 26 µM); IC50 ([3]; mean of replicates, read-out: L.don. ax am IC50 mean): 6.87 µg/mL (≈ 12.7 µM); IC50 ([3]; replicate 1, axenic amastigotes, pH 5.4, 70 h, read-out: L.don. ax am IC50 repl1): 6.87 µg/mL (≈ 12.7 µM); IC50 ([4]; mean of replicates, read-out: P.falc NF54 IC50 mean): 6.82 µg/mL (≈ 12.6 µM); IC50 ([4]; replicate 1, erythrocytic stages, read-out: P.falc NF54 IC50 repl1): 7.19 µg/mL (≈ 13.3 µM); IC50 ([4]; replicate 2, erythrocytic stages, read-out: P.falc NF54 IC50 repl2): 6.44 µg/mL (≈ 11.9 µM)
